Measurements: patent publication US20240025849A1 (MAX DELBRÜCK-CENTRUM FÜR MOLEKULARE MEDIZIN IN DER …, priority 2020, published 2024)
“Also recorded” adds a separate entry of the source.

Tests used:
iNOS = experiment: NOS enzyme activity assay (Eurofins), iNOS; type: biochemical; conditions: C1: 1 μM up to 5 μM as printed; 30 min reaction
Protocol: In mammalians NO is produced by the three isoforms of NOS: iNOS, eNOS, and nNOS. To evaluate the direct influence of cl on the different isoforms of NOS, an enzyme activity assay was conducted by Eurofins. C1 was mixed with the enzyme buffer, which included co-factors and substrates and by adding the enzyme the reaction was initiated. After 30 min the reaction was stopped, and NO concentration was measured. The results are normalised to positive control performed without any additional compounds and are presented as percentage in inhibition. […] To test the compounds effect on iNOS a concentration range from […] 5 μM were applied ([…], 1, 10, 100 nM, 1, and 5 μM), and for testing eNOS and nNOS 1 nM and 1 μM were applied.

[1] = tested on: primary cultured neonatal astrocytes; experiment: Propidium iodide based proliferation and cell death assay in astrocytes; conditions: 2.5 μM C1, 48 hours, unstimulated
Protocol: Primary cultured neonatal astrocytes. The preparation of primary cultured neonatal astrocytes followed the preparation of the primary cultured neonatal microglia, described above. After the third shake off, the remaining astrocytes were trypsinated, washed with PBS and seeded into a 96 well plate (10 000 cells/well, 200 μL medium per well).
Propidium iodide based proliferation and cell death assay. To determine the relative proliferation and cell death, the cells were seeded into a […], let adhere for 24 hours and afterwards treated for additional 48 hours. The supernatant was removed, and the cells were washed carefully with 37° C. HBSS once. 1/200 propidium iodide PBS solution was added and the cells were incubated for 10 minutes. The intensity of the propidium iodide signal of the dead cells was measured using a microplate reader. Afterwards, all cells were killed with a 10 min incubation of 10% DMSO and the propidium iodide signal of all cells was measured. All signals were corrected for the background noise, subtracting the blank signal. The percentage of dead cells was calculated by dividing the dead-cell-signal by the all-cell-signal. Proliferation was calculated as a relative value to the plain medium control.

[2] = Intravenous tissue distribution study in mice; type: in vivo, mouse
iNOS mRNA = experiment: Quantitative PCR of iNOS mRNA in microglia; type: cell-based, mouse; conditions: 2.5 μM C1
Protocol: Quantitative PCR. The same stimulation protocol as for the Flow cytometry-based phagocytosis assay was applied. Cells were seeded overnight, treated with 2.5 μM C1 in DMSO, 125×10^−5 v/v DMSO respectively, or plain medium only for 1 hour, followed by an additional stimulation with 1 μg/ml LPS for 24 hours. Total RNA was isolated using the RNeasy Plus Mini Kit (Qiagen, Hilden, Germany). On-column DNase 1 (Qiagen) digestion was performed and total RNA was eluted in RNase-free water. RNA yield was measured using a Nanodrop 1000 (Thermo Fisher Scientific) spectrophotometer and quality was assessed using an Agilent 2100 Bioanalyzer (Agilent, Santa Clara, USA). Samples were stored at −80° C. until further use. First-strand cDNA synthesis was done with the SuperScript II reverse transcriptase (Thermo Fisher Scientific) using oligo-dT primers12-18 (Invitrogen) according to the manufacturer's instructions. Quantitative real-time PCR (qRT PCR) reactions were performed in a 7500 Fast Real-Time thermocycler (Thermo Fisher Scientific) using the SYBR Select Master Mix (Thermo Fisher Scientific) according to the manufacturer's instructions. cDNA input ranged between 1 and 5 ng/μl of total RNA transcribed into cDNA. The expression results were normalized to the expression of PActin of the same sample.

[3] = tested on: primary cultured neonatal microglia; experiment: PolyIC induced NO release, Griess assay; type: cell-based, mouse; conditions: for NO concentration, % of stimulated control: 100 μg/ml PolyIC 24 hours
Protocol: Primary cultured neonatal microglia. For preparation of cultured neonatal microglia, P0-P3 mice were used. 10 brains were extracted, meninges and cerebellum were removed and put on ice with Hank's balanced salt solution (HBSS). The dissected brains were washed 3 times before adding 400 μL trypsin (0.1 mg/L) and DNAse (5 μg/L) in phosphate buffered saline (PBS). After 2 min of incubation with this solution, the reaction was blocked by adding plain medium. After removal of the medium, 1 mg DNAse was added and the cells were mechanically dissociated, with a Pasteur pipette followed by a glass pipette. The cells were centrifuged for 10 min at 129 g at 4° C. The supernatant was discarded. The pellet was resuspended in plain medium and plated (2.5 brains/flask) in Poly-L-Lysine coated flasks. The cells were washed after 2 days with PBS and incubated for another 7 days in plain medium. Afterwards the medium was replaced by plain medium with 33% L929 conditioned medium. After 2 days, cells were harvested by shaking them for 30 min at 150 rpm. The supernatant was centrifuged for 10 min at 129 g at 4° C. The cells were plated into a 96 well plate (100 000 cells/well, 200 μL medium per well). This procedure could be repeated 2 times with a 2 day interval.
Griess assay. Cells were seeded according to the protocols described above, after compounds and stimuli were added, 100 μl of supernatant was transferred into a new 96 well plate and 100 μl freshly mixed Griess reagent were added. Griess reagent was composed of reagent A (100 mg Naphthylethylene in 50 ml aqua dest.) and reagent B (1 g Sulfanilamide, […] H3PO4 (85%) in 44 mL aqua dest.) mixed 1:1. The solution was carefully mixed and the absorbance was determined in a microplate reader at a wavelength of 550 nm.
In order to test whether C1 decreases NO release induced by other stimulation agents besides LPS which is mimicking a bacterial infection, the inventors used IFNγ to mimic a Th1 cell response (Yau et al., 2016) and PolyIC to mimic an anti-viral response (Jiang and Pisetsky, 2006). Given that our aim is to determine the compound's effect on already stimulated microglia (LPS, IFNγ, and PolyIC), each individual experiment is normalized to its stimulated control.

Which “enzymatic activity of iNOS” value (iNOS) does the source give for `COc1ccc(NC(=O)C(NC(=O)C2CCCN2C(=O)OCc2ccccc2)c2ccc(OC)cc2)cc1` (stereo not drawn) [C1] here?
The value was “does not interfere”.

What about the “astrocytes cell death rate” value [1] of the same compound?
Its value is “no significant effect”.

And the proliferation of astrocytes [1]?
Its proliferation of astrocytes is “did not show an effect”.

And the “passage of the blood brain barrier” value ([2]; 5 mg/kg intravenous)?
Its value is “passes the blood brain barrier”.

What about the concentration in brain ([2]; 30 minutes after 5 mg/kg intravenous) of the same compound?
The concentration in brain was 1 μM/g tissue.

And the concentration in brain ([2]; 4 hours after 5 mg/kg intravenous)?
The concentration in brain was 2.4 nM/g tissue.

And the “iNOS mRNA level, basal conditions” value (iNOS mRNA)?
Its value is “no significant effect; also recorded: did not change”.

And the “iNOS mRNA level after LPS stimulation” value (iNOS mRNA; 1 μg/ml LPS 24 hours)?
Its value is “did not change mRNA significantly”.

And the “NO concentration, % of stimulated control” value (“NO concentration, %” below) ([3]; 25 nM C1)?
Its value is 66%.

And the “NO concentration, %” value ([3]; 250 nM C1)?
The value was 29%.

What about the “NO concentration, %” value ([3]; 2.5 μM C1) of the same compound?
Its value is 25%.

And the “NO release upon stimulation with PolyIC” value ([3]; pre-treatment with C1)?
Its value is “dose dependent decrease”.
